Tested on: dendritic cells
Experiment: Dendritic cell maturation (CCR7 expression by flow cytometry) in co-culture with untreated or irradiated cancer cells
Type: cell-based
Conditions: DCs cultured with untreated (0Gy) or irradiated (8Gy) cancer cells; 0, 50 or 100 micromolar FCA; flow cytometry 24 hours after culturing
Method: FIG. 4 depicts CCR7 expression in DCs that were cultured with cancer cells, where the cancer cells were untreated (0Gy) or irradiated (8Gy). These co-cultures were treated with 0, 50, or 100 micromolar Fmoc-d-cyclohexylalanine (FCA) to inhibit DNAse1L3.
Dendritic cells were cultured (with untreated or irradiated cancer cells) and treated with increasing doses of FCA, an inhibitor of DNAse1L3 (FIG. 4). Cancer cells were co-cultured with dendritic cells and were treated with 0, 50, or 100 micromolar Fmoc-d-cyclohexylalanine (FCA) to inhibit DNAse1L3.
CCR7 expression on DCs was assessed by flow cytometry 24 hours after culturing.

Structure (SMILES): O=C(N[C@H](CC1CCCCC1)C(=O)O)OCC1c2ccccc2-c2ccccc21 [FCA, Fmoc-d-cyclohexylalanine]
- dendritic cell maturation assessed by upregulation of markers including CCR7: stimulates DC maturation
